Source: patent US6864249B2, “Piperidine and azetidine thrombin inhibitors” (LG Life Sciences, Ltd., priority 1998, dated 2005)
Structures can show the parent of a compound that is named as a salt. Where two headings read alike, the source gives them in different places.

Legend:
[1] = biological target: T1, Thrombin prepared from human plasma (Homo sapiens, UniProt P00734); test: In vitro enzyme assay for thrombin inhibition constants (Chromozym TH substrate, Dixon plot); assay type: biochemical; settings: pH 7.8, room temperature
T1 construct: Thrombin used in this test was prepared from human plasma; from tissue; host or cells: human plasma
Description: In vitro Enzyme Assays for Determining Inhibition Constants
The activity of thrombin was measured spectrophotometrically using tosyl-Gly-Pro-Arg-p-nitroanilide acetate (Chromozym TH, Boehringer Mannheim) as a substrate. […] Each compound was dissolved in DMSO to make a 1 mM stock solution and dilutions were made thereof with assay buffer (0.1 M Tris HCl, 0.15 M NaCl, 0.1% polyethylene glycol 8000, pH 7.8). Different concentrations of inhibitor were mixed with […] of thrombin in 0.8 mL of the buffer. The mixture was incubated for 10 min at room temperature before adding 0.2 mL of the substrate to a final concentration of 20 μM. […] A graph for the reciprocal value of initial velocity to the inhibitor concentration was derived from progress curves by fitting the data using a linear regression program.

thrombus formation = test: Rat venous thrombosis model (thromboplastin infusion and vena cava stasis, clot weight); assay type: in vivo, Male Sprague-Dawley rats; settings: 1 mg/kg iv bolus 5 min before thromboplastin infusion
Description: In vivo Studies of the Compounds Claimed Herein Were Conducted Using the Following Procedure
Male Sprague-Dawley rats (body weights 250-300 g, 3-4/group) were anaesthetized by intraperitoneal injection with urethane solution (1.25 g/kg). […] The venae iliolumbar and spermatica were ligated with a silk thread. Thrombus formation was initiated by infusion of a thromboplastin preparation (Simplastin®) using an infusion pump (Model 100, IITC Life Science, USA) via the left femoral vein at 0.5 mL/kg/min. Simplastin® (Organon Teknika, USA) was reconstituted with 4 mL of distilled water and then given diluted at 1:2.5 in distilled water. At the start of infusion for 30 seconds, the vena cava was ligatured below the left renal vein. After the end of infusion, vena cava was also ligatured above the iliac veins 16 mm apart from upper ligature. After 15 min of stasis, the thrombus formed inside the vessel was carefully removed and weighed. Before wighing, the excess blood was removed by blotting the wet clot on the wet Whatman filter paper (see, Millet, J.; Theveniaux, J.; Brown, N. L. Thromb. Haemost. 1992, 67, 176).
Saline (control) or test compounds (1 mg/kg) were injected as a bolus via the femoral vein starting 5 min before the thromboplastin infusion. Bolus injection volume was 0.5 mL/kg. Antithrombotic activity was expressed as a percentage where: Antithrombotic activity (%)=100×(A−B)/A • A=mean clot weight of control group • B=mean clot weight of test compound group

[2] = Pharmacokinetic study for oral bioavailability in rats; assay type: in vivo, Male Sprague-Dawley rats; settings: oral dosing in rats, 30 mg/kg
Description: Pharmacokinetic Studies for Determining Oral Bioavailability
Male Sprague-Dawley rats (250-300 g) were restrained individually in a surgical plate (Dae Jong Instrument Company, Seoul, Korea) as supine position. The femoral artery and the femoral vein (iv only) of rats were cannulated with polyethylene tubing (PE-50, Clay Adams, Parsippany, N.J., USA) under light ether anesthesia. After complete recovery from anesthesia, rats were given 30 mg/kg of test compound dissolved in distilled water via oral gavage or given 10 mg/kg via the femoral vein for intravenous (iv) study. Blood samples (0.25 mL) were collected from the femoral artery at 0 (for control), 1 (iv only), 5, 15, 30, 60, 90 (iv only), 120, 180, and 240 min after dosing.
Blood samples were taken into heparinized tube (25 U/mL), deproteinized with 2 volumes of methanol, and centrifuged. The resulting supernatant (60 μL) was analyzed by HPLC eluting with a mixture of 0.1% trifluoroacetic acid aqueous solution and acetonitrile with a ratio of 81% to 19%. Plasma concentration of test compound was recorded and used to calculate the pharmacokinetic parameters: maximum plasma concentration of test compound (Cmax), time of maximum plasma concentration (Tmax) area under the curve (AUC), and fraction of test compound absorbed (F).
Table 2 illustrates the pharmacokinetic results for some exemplary compounds of invention obtained upon oral dosing in rats.

[3] = male, Sprague-Dawley, rat, plasma
[4] = male, Sprague-Dawley, rat, plasma, read-out: AUC (converted)
[5] = male, Sprague-Dawley, rat, plasma, read-out: Cmax

Ki [1]	Tmax [2, 3]	AUC [2]	Cmax [2]	AUC [2, 4]	Cmax [2, 5]	Structure (SMILES)	Antithrombotic activity (inhibition of thrombus formation) (thrombus formation)
0.056 nM	–	–	–	–	–	N=C(N)c1cc(CNC(=O)[C@@H]2CCCN2C(=O)[C@H](NS(N)(=O)=O)C(c2ccccc2)c2ccccc2)cs1 [Example 15, N-aminosulfonyl-D-diphenylalanyl-L-prolyl-[(5-amidino-3-thienyl)methyl]amide.TFA]	100%
–	15 min	212 µg·min/mL	4600 ng/mL	–	–	N=C(N)c1cc(CNC(=O)[C@@H]2CCCN2C(=O)[C@H](NCC(=O)O)C(c2ccccc2)c2ccccc2)cs1 [Example 39, N-carboxymethyl-D-diphenylalanyl-L-prolyl-[(5-amidino-3-thienyl)methyl]amide.2TFA]	–
0.011 nM	20 min	503 µg·min/mL	4900 ng/mL	–	–	N=C(N)c1ccc(CNC(=O)[C@@H]2CCCN2C(=O)[C@H](NCCC(=O)O)C(c2ccccc2)c2ccccc2)s1 [Example 41, N-(2-carboxyethyl)-D-diphenylalanyl-L-prolyl-[(5-amidino-2-thienyl)methyl]amide.2TFA]	100%
–	60 min	–	2200 ng/mL	253 µg·min/mL	–	N=C(N)c1ccc(CNC(=O)[C@@H]2CCCN2C(=O)[C@H](NS(N)(=O)=O)C(c2ccccc2)c2ccccc2)s1 [Example 1, N-aminosulfonyl-D-diphenylalanyl-L-prolyl-[(5-amidino-2-thienyl)methyl]amide.TFA]	100%
–	80 min	850 µg·min/mL	–	–	4500 ng/mL	COC(=O)N[C@@H](C(=O)N1CCC[C@H]1C(=O)NCc1cc(C(=N)N)cs1)C(c1ccccc1)c1ccccc1 [Example 14, N-methoxycarbonyl-D-diphenylalanyl-L-prolyl-[(4-amidino-2-thienyl)methyl]amide.TFA]	–
0.06 nM	80 min	1297 µg·min/mL	–	–	5200 ng/mL	COC(=O)N[C@@H](C(=O)N1CCC[C@H]1C(=O)NCc1csc(C(=N)N)c1)C(c1ccccc1)c1ccccc1 [Example 19, N-methoxycarbonyl-D-diphenylalanyl-L-prolyl-[(5-amidino-3-thienyl)methyl]amide.TFA]	100%
0.004 nM	–	–	–	–	–	CS(=O)(=O)N[C@@H](C(=O)N1CCC[C@H]1C(=O)NCc1ccc(C(=N)N)s1)C(c1ccccc1)c1ccccc1 [Example 3, N-methylsulfonyl-D-diphenylalanyl-L-prolyl-[(5-amidino-2-thienyl)methyl]amide.TFA]	100%
0.6 nM	25 min	1126 µg·min/mL	11100 ng/mL	–	–	N=C(N)c1csc(CNC(=O)[C@@H]2CCCN2C(=O)[C@H](NCC(=O)O)C(c2ccccc2)c2ccccc2)n1 [Example 40, N-carboxymethyl-D-diphenylalanyl-L-prolyl-[(4-amidino-2-thiazolyl)methyl]amide.2TFA]	–
0.014 nM	60 min	–	–	1620 µg·min/mL	9600 ng/mL	COC(=O)N[C@@H](C(=O)N1CCC[C@H]1C(=O)NCc1ccc(C(=N)N)s1)C(c1ccccc1)c1ccccc1 [Example 8, N-methoxycarbonyl-D-diphenylalanyl-L-prolyl-[(5-amidino-2-thienyl)methyl]amide.TFA]	–
0.022 nM	45 min	254 µg·min/mL	–	–	2100 ng/mL	N=C(N)c1csc(CNC(=O)[C@@H]2CCCN2C(=O)[C@H](NS(N)(=O)=O)C(c2ccccc2)c2ccccc2)c1 [Example 11, N-aminosulfonyl-D-diphenylalanyl-L-prolyl-[(4-amidino-2-thienyl)methyl]amide.TFA]	100%
0.015 nM	15 min	1390 µg·min/mL	9500 ng/mL	–	–	N=C(N)c1ccc(CNC(=O)[C@@H]2CCCN2C(=O)[C@H](NCC(=O)O)C(c2ccccc2)c2ccccc2)s1 [Example 29, N-carboxymethyl-D-diphenylalanyl-L-prolyl-[(5-amidino-2-thienyl)methyl]amide.2TFA]	100%
4.6 nM	45 min	–	–	965 µg·min/mL	7100 ng/mL	COC(=O)N[C@@H](C(=O)N1CCC[C@H]1C(=O)NCc1ccc(C(=N)N)o1)C(c1ccccc1)c1ccccc1 [Example 35, N-methoxycabonyl-D-diphenylalanyl-L-prolyl-[(5-amidino-2-furanyl)methyl]amide.TFA]	–
5.8 nM	32 min	–	–	280 µg·min/mL	1800 ng/mL	CS(=O)(=O)N[C@@H](C(=O)N1CCC[C@H]1C(=O)NCc1ccc(CN)s1)C(c1ccccc1)c1ccccc1 [Example 5, N-methylsulfonyl-D-diphenylalanyl-L-prolyl-[(5-aminomethyl-2-thienyl)methyl]amide.TFA]	–
